# Legend:
# Type in all cases: cell-based, mouse
# Stat3 (pY705) = experiment: Signaling pathway screen in SMN2-NSC34 cells
# SMN2 = SMN2 splicing pattern, semi-quantitative RT-PCR in SMN2-NSC34 cells; parameters: key to SMN2 splicing pattern SMN2-NSC34: −: no effect; +: effective; +++: most effective
# Protocol: Cell culture and chemical/dsRNA treatment. Mouse embryonic fibroblasts (MEFs) were prepared using the standard protocol. Briefly, E13.5 day embryo was isolated; the uterine deciduas were cut away, and the yolk sac was removed. The embryo was then scraped out to remove non-fibroblastic tissue, and the head severed for genotyping. Embryo body was minced in 0.25% Trypsin-EDTA and incubated for 30 min. It was then added to MEF culture media, and the cell suspension spun for ˜5 min at 1,000 rpm in the tissue culture centrifuge to pellet cells. The supernatant was aspirated off and the cell pellet immediately resuspended in 10 mL of fresh MEF culture media. The MEFs were allowed to reach confluency so the cells could be passaged for further experiments. Cultured MEFs and SMN2-NSC34 cells were maintained in Dulbecco's modified Eagle medium (Invitrogen, Carlsbad, Calif.) containing 10% heat-inactivated fetal bovine serum (Hyclone, Logan, Utah) and 1% penicillin-streptomycin (Invitrogen, Carlsbad, Calif.) and were incubated at 37° C. in a 5% CO2 humidified atmosphere. The cells were plated the day preceding treatment with each chemical and harvested at the indicated time.
# Semi-quantitative PCR/RT-PCR. The genomic DNA from E13.5 SMA embryos was extracted. A specific primer pair, SMN forward 5′-[…]-3′ (SEQ ID NO:21) and SMN backward 5′-[…]-3′ (SEQ ID NO:22), was designed for recognition of both murine Smn and human SMN2. The PCR program initially started with a 95° C. denaturation for 10 min, followed by 19 to 26 cycles of 95° C./1 min. 53° C./1.5 min, 72° C./2 min to assay the linear range for both Smn and SMN2. For RT-PCR assay, total RNA was extracted at indicated time points from SMN2-NSC34 cells with sodium vanadate, TSA, and aclarubicin treatment or with an increasing amount of Stat5A1*6 transfection by using the TRizol reagent (Invitrogen, Carlsbad, Calif.). To amplify the exon7 inclusion/exclusion form of SMN2 transcripts, RT-PCR were performed using a primer set P5P6 as previously described (15). The transcript from the mouse glyceraldehyde-3-phosphate dehydrogenase (Gapdh) gene or the β-Actin gene was amplified using the primer pairs: Gapdh forward: 5′-[…]-3′ (SEQ ID NO:23), and backward: 5′-[…]-3′ (SEQ ID NO:24) (56° C.), and β-Actin forward: 5′-[…]-3′ (SEQ ID NO:25), and backward 5′-[…]-3′ (SEQ ID NO:26) (59° C.), and this allowed control of equal amounts of template. […] The gel images were digitally captured with a CCD camera and analyzed with the Alphalmager™. […] Relative total SMN2 transcript levels were determined from Stat5A1*6 transfected SMN2-NSC34 cells in a minimum of three independent experiments. Differences in ratios were determined to be significant by an independent two-tailed t-test, with *, P<0.05, **, P<0.005, ***, p<0.001.
# Stat5 (pT694) = experiment: Signaling pathway screen in SMN2-NSC34 cells; parameters: Stat5 (pT694) cellular response: key: −: decreasing; +/−: no activation; +: slight activation; ++: minor activation; +++: significant activation
# Protocol: Western blot analysis. Cells treated by dsRNA, compounds or Stat5A1*6 transfected were detached by scraping, pelletting and rinsing in PBS. Cell pellets were collected after centrifugation and lysed on ice in modified RIPA buffer (50 mM Tris-HCl (pH7.4), 1% NP-40, 0.25% deoxycholic acid, 0.15M NaCl, 1 mM EDTA, 1 mM PMSF/NaF/sodium orthovanadate, and protease inhibitors cocktail (Roche, Mannheim, Germany) for 30 min. After centrifugation, the supernatants were collected and kept frozen at −20° C. Protein concentrations were determined by Bio-Rad protein assay method. For Western blot analysis, protein samples were boiled for 5 min and electrophoresed on 8% or 10% SDS-polyacrylamide gel in a 1× running buffer (25 mM Tris, 192 mM glycine, 3.4 mM SDS, pH 8.3) and subsequently electrotransferred to Polyvinylidene Fluoride tansfer membrane (Pall, Pensacola, Fla.) using a TE 22 mini-tank transfer unit (Amersham Biosciences, San Francisco, Calif.) at 35 volts overnight in transfer buffer (25 mM Tris, 192 mM glycine, 20% methanol, pH8.3). The blotting membranes were incubated in blocking solution (PBS, 5% non-fat milk, 0.2% Tween-20) for 1 hour at room temperature, and then incubated in the same solution with the primary antibody (human-specific SMN/1:1000; SMN/1:5000, Transduction Laboratories, Lexington, Ky.; phospho-Stat5a/b/1:1000, Cell signaling, Beverly, Mass.; phospho-Jak2/1:1000, Upstate, Lake Placid, N.Y.; Flag BioM2/1:1000, Sigma, St. Louis, MO; c-myc/1:200, Santa Cruz Biotech, Santa Cruz, Calif.; α-Tubilin/1:10000, Upstate, Lake Placid, N.Y., MO), overnight at 4° C. The membranes were washed and incubated in the blocking solution with the proper HRP-conjugated secondary antibody at 1/5000 dilution (Chemicon, Temecula, Calif.) for 1 hour at room temperature. After washing three times in PBS containing 0.1% Tween-20, the signals were visualized by autoradiography (Fuji Medical X-ray film, Fuji Photos, Tokyo) using enhanced chemi-luminescence (ECL detection system; Perkin-Elmer, Boston, Calif.). Western blot quantification was performed by scanning the auto-radiographs with a computerized densitometer. Signal intensities were determined by densitometry analysis (Fuji film LAS-1000 plus pictography) using the program Phoreticx 1D (Phoreticx International).
# Therefore, TSA, aclarubicin and sodium vanadate all induce the activation of Stat5A in motor neuron-like NSC34 cells.
# ERK1/2 (pT202/pY204) = experiment: Signaling pathway screen in SMN2-NSC34 cells
substance,measurement,setting,value
Sodium vanadate,Stat3 (pY705) cellular response,Stat3 (pY705); 4 hrs,+
same,Stat3 (pY705) cellular response,Stat3 (pY705); 8 hrs,++
same,SMN2 splicing pattern SMN2-NSC34,SMN2,+++
same,efficiency in increasing full length SMN2 transcripts relative to the other compounds,SMN2,most efficient
same,treatment time after which the full length SMN2 expression level was enhanced,SMN2,2 to 4 h
same,Stat5 (pT694) cellular response,Stat5 (pT694),++ and +++
same,Stat5 phosphorylation status at 8 hours,Stat5 (pT694),remained activated
same,phosphorylation level of Stat5 increased compared to control cells,Stat5 (pT694),about 6 fold
same,ERK1/2 (pT202/pY204) cellular response,ERK1/2 (pT202/pY204); 4 hrs,+
same,ERK1/2 (pT202/pY204) cellular response,ERK1/2 (pT202/pY204); 8 hrs,++

# — US20080187512A1, “Treatment for spinal muscular atrophy” (Academia Sinica, priority 2007, published 2008)
